Reference: US12065436B2, “Cardiac sarcomere inhibitors” (Cytokinetics, Inc., priority 2018, dated 2024)
pIC50: −log10 of the molar value.

Target: bovine cardiac myofibrils (full-length cardiac myosin ATPase in the native sarcomere) (Bos taurus (Bovine), UniProt Q9BE39)
Test: Skinned bovine cardiac myofibril ATPase assay (PK/LDH-coupled)
Format: biochemical
Details: Ca2+ activating to 75% of maximal rate; for CDMF75 IC15: concentration giving 15% inhibition; for pIC50: read-out: CDMF75 IC50
Procedure, shortened: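 Triton-skinned bovine left-ventricle myofibrils (1 mg/mL) in PM 12 buffer (12 mM PIPES, 2 mM MgCl2, pH 6.8) with 50 μM ATP, 0.6 mM EGTA and CaCl2 set for 50% or 75% activation. Steady-state ATPase inhibition followed by PK/LDH-coupled NADH oxidation at 340 nm.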

Sequence of bovine cardiac myofibrils (full-length cardiac myosin ATPase in the native sarcomere) (Q9BE39 whole entry): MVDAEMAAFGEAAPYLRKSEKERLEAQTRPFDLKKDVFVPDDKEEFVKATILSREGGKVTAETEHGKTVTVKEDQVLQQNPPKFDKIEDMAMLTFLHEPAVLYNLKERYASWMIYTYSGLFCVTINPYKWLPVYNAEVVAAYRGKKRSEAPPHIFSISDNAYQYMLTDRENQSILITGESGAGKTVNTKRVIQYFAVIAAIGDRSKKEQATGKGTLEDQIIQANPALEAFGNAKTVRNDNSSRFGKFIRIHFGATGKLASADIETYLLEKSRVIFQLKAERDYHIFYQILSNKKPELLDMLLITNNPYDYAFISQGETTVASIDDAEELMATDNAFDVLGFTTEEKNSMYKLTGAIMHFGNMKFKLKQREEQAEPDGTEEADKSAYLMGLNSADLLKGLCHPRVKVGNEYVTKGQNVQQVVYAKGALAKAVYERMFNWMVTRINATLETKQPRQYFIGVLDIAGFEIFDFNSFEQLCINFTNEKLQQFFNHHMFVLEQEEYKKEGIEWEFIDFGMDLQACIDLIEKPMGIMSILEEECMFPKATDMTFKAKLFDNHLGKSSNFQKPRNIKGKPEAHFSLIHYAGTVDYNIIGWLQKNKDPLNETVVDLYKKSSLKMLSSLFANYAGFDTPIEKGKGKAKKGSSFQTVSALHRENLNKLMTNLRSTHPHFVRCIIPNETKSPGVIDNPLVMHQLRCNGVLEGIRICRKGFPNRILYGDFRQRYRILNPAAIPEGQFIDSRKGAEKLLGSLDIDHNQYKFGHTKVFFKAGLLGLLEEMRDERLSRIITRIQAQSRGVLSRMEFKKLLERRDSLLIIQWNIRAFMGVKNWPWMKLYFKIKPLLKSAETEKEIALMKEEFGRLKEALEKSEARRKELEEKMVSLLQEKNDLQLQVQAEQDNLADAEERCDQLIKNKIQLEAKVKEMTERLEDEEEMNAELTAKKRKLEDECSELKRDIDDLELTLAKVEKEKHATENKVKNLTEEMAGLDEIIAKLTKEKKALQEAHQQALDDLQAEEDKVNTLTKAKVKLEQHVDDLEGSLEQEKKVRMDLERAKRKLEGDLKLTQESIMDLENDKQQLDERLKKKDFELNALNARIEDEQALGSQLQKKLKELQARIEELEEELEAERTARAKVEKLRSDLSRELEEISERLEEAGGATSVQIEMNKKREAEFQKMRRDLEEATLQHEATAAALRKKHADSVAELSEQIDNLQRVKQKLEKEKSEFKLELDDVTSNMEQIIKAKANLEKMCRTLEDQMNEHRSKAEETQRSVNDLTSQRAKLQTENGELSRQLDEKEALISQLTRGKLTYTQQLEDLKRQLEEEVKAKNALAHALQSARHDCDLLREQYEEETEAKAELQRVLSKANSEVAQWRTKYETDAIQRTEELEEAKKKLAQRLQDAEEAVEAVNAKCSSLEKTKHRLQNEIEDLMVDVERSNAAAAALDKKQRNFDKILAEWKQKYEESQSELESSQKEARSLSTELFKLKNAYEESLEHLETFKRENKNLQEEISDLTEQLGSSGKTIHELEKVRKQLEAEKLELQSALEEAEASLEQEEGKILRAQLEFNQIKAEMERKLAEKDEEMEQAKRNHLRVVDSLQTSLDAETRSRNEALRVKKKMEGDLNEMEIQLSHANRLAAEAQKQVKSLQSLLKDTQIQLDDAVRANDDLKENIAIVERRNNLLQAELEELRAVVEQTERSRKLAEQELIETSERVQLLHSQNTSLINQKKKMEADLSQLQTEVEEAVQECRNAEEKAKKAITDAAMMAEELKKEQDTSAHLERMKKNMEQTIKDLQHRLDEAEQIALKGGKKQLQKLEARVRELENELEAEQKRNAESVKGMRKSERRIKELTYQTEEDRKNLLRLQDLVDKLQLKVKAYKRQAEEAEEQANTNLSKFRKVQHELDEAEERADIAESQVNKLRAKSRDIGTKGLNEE
Sequence of bovine cardiac myofibrils (full-length cardiac myosin ATPase in the native sarcomere) (P85100 whole entry partner): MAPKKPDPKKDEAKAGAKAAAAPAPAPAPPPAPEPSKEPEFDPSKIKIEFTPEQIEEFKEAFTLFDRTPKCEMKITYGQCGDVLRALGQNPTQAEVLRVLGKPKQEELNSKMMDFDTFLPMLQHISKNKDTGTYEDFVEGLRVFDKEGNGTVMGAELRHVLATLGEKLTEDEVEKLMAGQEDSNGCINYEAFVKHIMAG
Sequence of bovine cardiac myofibrils (full-length cardiac myosin ATPase in the native sarcomere) (Q3SZE5 whole entry partner): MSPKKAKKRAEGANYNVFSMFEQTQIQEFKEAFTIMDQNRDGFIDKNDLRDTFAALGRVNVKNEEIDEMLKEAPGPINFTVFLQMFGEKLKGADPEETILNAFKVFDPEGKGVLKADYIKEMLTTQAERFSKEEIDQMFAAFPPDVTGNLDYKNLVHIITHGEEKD

Row | Compound | CDMF75 IC15 [nM] | pIC50
1 | CCc1nc(-c2ccc3c(c2)CC[C@H]3NC(=O)c2cnn(C[C@H](O)CO)c2)no1 [Compound 540, N-[(1R)-5-(5-ethyl(1,2,4-oxadiazol-3-yl))indanyl][1-((2S)-2,3-dihydroxypropyl)pyrazol-4-yl]carboxamide] | 700 | 5.54
2 | Cc1cc(-c2ccc3c(c2)OC[C@H]3NC(=O)c2ccnn2C)no1 [Compound 427, (S)-1-methyl-N-(6-(5-methylisoxazol-3-yl)-2,3-dihydrobenzofuran-3-yl)-1H-pyrazole-5-carboxamide] | 500 | 5.80
3 | Cn1cc(C(=O)N[C@@H]2CCc3cc(-c4noc(C5CCC5)n4)ccc32)ccc1=O [Compound 645, (R)-N-(5-(5-cyclobutyl-1,2,4-oxadiazol-3-yl)-2,3-dihydro-1H-inden-1-yl)-1-methyl-6-oxo-1,6-dihydropyridine-3-carboxamide] | 1600 | 5.15
4 | Cc1cnc(C(=O)NC2CCc3cc(-c4noc(C(F)F)n4)ccc32)c(C)n1 (stereo not shown) [Compound 41, N-(5-(5-(difluoromethyl)-1,2,4-oxadiazol-3-yl)-2,3-dihydro-1H-inden-1-yl)-3,5-dimethylpyrazine-2-carboxamide] | 6600 | < 4.41
5 | COc1cc(C(=O)N[C@@H]2CCc3cc(-c4noc(C(F)F)n4)ccc32)on1 [Compound 680, (R)-N-(5-(5-(difluoromethyl)-1,2,4-oxadiazol-3-yl)-2,3-dihydro-1H-inden-1-yl)-3-methoxyisoxazole-5-carboxamide] | 500 | 5.77
6 | Cc1nc(C(=O)NC2CCc3cc(-c4noc(C(F)F)n4)ccc32)no1 (stereo not shown) [Compound 84, N-(5-(5-(difluoromethyl)-1,2,4-oxadiazol-3-yl)-2,3-dihydro-1H-inden-1-yl)-5-methyl-1,2,4-oxadiazole-3-carboxamide] | 2700 | 4.97
7 | Cc1cc(C(=O)N[C@@H]2CCc3cc(-c4noc(C(F)F)n4)ccc32)n(C)n1 [Compound 101, (R)-N-(5-(5-(difluoromethyl)-1,2,4-oxadiazol-3-yl)-2,3-dihydro-1H-inden-1-yl)-1,3-dimethyl-1H-pyrazole-5-carboxamide] | 300 | 5.96
8 | Cc1nccc(C(=O)NC2CCc3cc(-c4noc(C(F)F)n4)ccc32)n1 (stereo not shown) [Compound 26, N-(5-(5-(difluoromethyl)-1,2,4-oxadiazol-3-yl)-2,3-dihydro-1H-inden-1-yl)-2-methylpyrimidine-4-carboxamide] | 7800 | 4.52
9 | Cc1nc(-c2ccc3c(c2)CCC3NC(=O)c2nocc2C)no1 (stereo not shown) [Compound 105, 4-methyl-N-(5-(5-methyl-1,2,4-oxadiazol-3-yl)-2,3-dihydro-1H-inden-1-yl)isoxazole-3-carboxamide] | 2200 | 5.05
10 | Cc1nc(-c2ccc3c(c2)CCC3NC(=O)c2cnc(C)n2C)no1 (stereo not shown) [Compound 45, 1,2-dimethyl-N-(5-(5-methyl-1,2,4-oxadiazol-3-yl)-2,3-dihydro-1H-inden-1-yl)-1H-imidazole-5-carboxamide] | 2100 | 5.12
11 | CCc1nc(-c2ccc3c(c2)CC[C@H]3NC(=O)c2ccnn2C)no1 [Compound 240, (R)-N-(5-(5-ethyl-1,2,4-oxadiazol-3-yl)-2,3-dihydro-1H-inden-1-yl)-1-methyl-1H-pyrazole-5-carboxamide] | 300 | 6.10
12 | CCc1nc(-c2ccc3c(c2)CCC3C(=O)Nc2ccnc(C)c2)no1 (stereo not shown) [Compound 483, 5-(5-ethyl-1,2,4-oxadiazol-3-yl)-N-(2-methylpyridin-4-yl)-2,3-dihydro-1H-indene-1-carboxamide] | 2000 | 5.17
13 | Cc1nc(-c2ccc3c(c2)CCC3NC(=O)c2cnn(C)c2C)no1 (stereo not shown) [Compound 54, 1,5-dimethyl-N-(5-(5-methyl-1,2,4-oxadiazol-3-yl)-2,3-dihydro-1H-inden-1-yl)-1H-pyrazole-4-carboxamide] | 2200 | 5.11
14 | CCc1cc(-c2ccc3c(c2)CC[C@H]3NC(=O)c2ocnc2C)no1 [Compound 417, (R)-N-(5-(5-ethylisoxazol-3-yl)-2,3-dihydro-1H-inden-1-yl)-4-methyloxazole-5-carboxamide] | 200 | 6.22
15 | CCc1nc(-c2ccc3c(c2)OCC3NC(=O)c2ccnn2C)no1 (stereo not shown) [Compound 229, N-(6-(5-ethyl-1,2,4-oxadiazol-3-yl)-2,3-dihydrobenzofuran-3-yl)-1-methyl-1H-pyrazole-5-carboxamide] | 500 | 5.85
16 | Cc1nc(-c2ccc3c(c2)CC[C@H]3NC(=O)c2cccc([C@H](C)O)c2)no1 [Compound 725, 3-((S)-1-hydroxyethyl)-N-((R)-5-(5-methyl-1,2,4-oxadiazol-3-yl)-2,3-dihydro-1H-inden-1-yl)benzamide] | 600 | 5.54

Row | Compound | CDMF75 IC15 [nM] | pIC50
17 | CCc1nc(-c2ccc3c(c2)CC[C@H]3NC(=O)c2cn[nH]c2)no1 [Compound 469, (R)-N-(5-(5-ethyl-1,2,4-oxadiazol-3-yl)-2,3-dihydro-1H-inden-1-yl)-1H-pyrazole-4-carboxamide] | 300 | 5.96
18 | CCc1nc(-c2ccc3c(c2)CC[C@H]3NC(=O)c2cnon2)no1 [Compound 615, (R)-N-(5-(5-ethyl-1,2,4-oxadiazol-3-yl)-2,3-dihydro-1H-inden-1-yl)-1,2,5-oxadiazole-3-carboxamide] | 400 | 5.85
19 | Cc1nc(C)c(C(=O)NC2COc3cc(-c4noc(C(F)F)n4)ccc32)o1 (stereo not shown) [Compound 192, N-(6-(5-(difluoromethyl)-1,2,4-oxadiazol-3-yl)-2,3-dihydrobenzofuran-3-yl)-2,4-dimethyloxazole-5-carboxamide] | 1000 | 5.42
20 | Cn1cc(C(=O)NC2COc3cc(-c4noc(C(F)F)n4)ccc32)cn1 (stereo not shown) [Compound 219, N-(6-(5-(difluoromethyl)-1,2,4-oxadiazol-3-yl)-2,3-dihydrobenzofuran-3-yl)-1-methyl-1H-pyrazole-4-carboxamide] | 700 | 5.60
21 | Cn1nccc1C(=O)N[C@@H]1CCc2cc(-c3noc(C(F)F)n3)ccc21 [Compound 92, (R)-N-(5-(5-(difluoromethyl)-1,2,4-oxadiazol-3-yl)-2,3-dihydro-1H-inden-1-yl)-1-methyl-1H-pyrazole-5-carboxamide] | 300 | 6.10
22 | Cc1nc(C)c(C(=O)NC2CCc3cc(-c4noc(C(F)F)n4)ccc32)o1 (stereo not shown) [Compound 19, N-(5-(5-(difluoromethyl)-1,2,4-oxadiazol-3-yl)-2,3-dihydro-1H-inden-1-yl)-2,4-dimethyloxazole-5-carboxamide] | 1300 | 5.34
23 | CC(C)OC(=O)N[C@@H]1CCc2cc(-c3noc(C(F)F)n3)ccc21 [Compound 279, isopropyl (R)-(5-(5-(difluoromethyl)-1,2,4-oxadiazol-3-yl)-2,3-dihydro-1H-inden-1-yl)carbamate] | 22400 | < 4.41
24 | CCc1cc(-c2ccc3c(c2)CC[C@H]3NC(=O)c2cnn(C)c2)no1 [Compound 413, (R)-N-(5-(5-ethylisoxazol-3-yl)-2,3-dihydro-1H-inden-1-yl)-1-methyl-1H-pyrazole-4-carboxamide] | 400 | 5.82
25 | [2H]C([2H])([2H])c1nc(-c2ccc3c(c2)CC[C@H]3NC(=O)c2cc(C)nn2C)no1 [Compound 247, (R)-1,3-dimethyl-N-(5-(5-(methyl-d3)-1,2,4-oxadiazol-3-yl)-2,3-dihydro-1H-inden-1-yl)-1H-pyrazole-5-carboxamide] | 800 | 5.59
26 | CCc1nc(-c2ccc3c(c2)CC[C@H]3NC(=O)OCC(C)C)no1 [Compound 322, isobutyl (R)-(5-(5-ethyl-1,2,4-oxadiazol-3-yl)-2,3-dihydro-1H-inden-1-yl)carbamate] | 300 | 6.05
27 | Cc1nc(-c2ccc3c(c2)OCC3NC(=O)c2cnn(C)c2C)no1 (stereo not shown) [Compound 162, 1,5-dimethyl-N-(6-(5-methyl-1,2,4-oxadiazol-3-yl)-2,3-dihydrobenzofuran-3-yl)-1H-pyrazole-4-carboxamide] | 1600 | 5.19
28 | CCc1nc(-c2ccc3c(c2)CC[C@H]3NC(=O)c2ccn(C)n2)no1 [Compound 592, (R)-N-(5-(5-ethyl-1,2,4-oxadiazol-3-yl)-2,3-dihydro-1H-inden-1-yl)-1-methyl-1H-pyrazole-3-carboxamide] | 2700 | 4.96
29 | CCOC(=O)c1cc(C(=O)N[C@@H]2CCc3cc(-c4noc(CC)n4)ccc32)ccn1 [Compound 555, Ethyl (R)-4-((5-(5-ethyl-1,2,4-oxadiazol-3-yl)-2,3-dihydro-1H-inden-1-yl)carbamoyl)picolinate] | 1000 | 5.46
30 | CCc1nc(-c2ccc3c(c2)CC[C@H]3NC(=O)c2ccnc(C(F)F)c2)no1 [Compound 578, (R)-2-(difluoromethyl)-N-(5-(5-ethyl-1,2,4-oxadiazol-3-yl)-2,3-dihydro-1H-inden-1-yl)isonicotinamide] | 400 | 5.92
31 | Cc1ccnc(C(=O)NC2CCc3cc(-c4noc(C(F)F)n4)ccc32)c1 (stereo not shown) [Compound 67, N-(5-(5-(difluoromethyl)-1,2,4-oxadiazol-3-yl)-2,3-dihydro-1H-inden-1-yl)-4-methylpicolinamide] | 900 | 5.33
32 | Cc1n[nH]cc1C(=O)N[C@@H]1CCc2cc(-c3noc(C(F)F)n3)ccc21 [Compound 71, (R)-N-(5-(5-(difluoromethyl)-1,2,4-oxadiazol-3-yl)-2,3-dihydro-1H-inden-1-yl)-3-methyl-1H-pyrazole-4-carboxamide] | 400 | 5.92
